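Where inhibition never reached the appropriate level, the endpoint shown equals the highest concentration tested. Otherwise, values were interpolated linearly from a five-concentration, 48-hour dose response in 96-well plates. GI50: concentration for 50% inhibition of growth.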 The source made the active and inactive calls. No stated cut-off is given here; in the data, active = GI50 up to about 1.1 µM and inactive = higher.

Data on 5 compounds can be found in ChEMBL document CHEMBL1201862, “PubChem BioAssay data set” (2004).

What all share (experiment): NCI anticancer screen, dose series, 48 h
Test [1] relates to RPMI-8226.
In test [2] the test system is Malme-3M.
Test [3] concerns SK-MEL-28.
Test [4] relates to HL-60.
Test [5] concerns T47D.
Test [6] concerns SNB-75.
Test [7] concerns HOP-62.
The test system of test [8] is BT-549.
The subject of test [9] is OVCAR-8.
Test [10] relates to SF-539.
Test [11] deals with SF-268.
The test system of test [12] is NCI-H460.
Test [13] concerns SW-620.
The subject of test [14] is RXF 393.
The subject of test [15] is HT-29.
The test system of test [16] is EKVX.
The test system of test [17] is SNB-19.
The subject of test [18] is MDA-MB-435.
Test [19] concerns SK-MEL-2.
Test [20] concerns KM12.

As to `COc1ccc(/C=C2\C(=O)NC(=O)c3ccccc32)cc1OC`, the GI50 in test [1] is 5.47 µM (inactive); in test [2] it was > 86.9 µM (inactive); in test [3] it was > 77.3 µM (inactive); in test [4], 2.68 µM (inactive); in test [5], > 100 µM (inactive); in test [6] it was 37.4 µM (inactive). Moreover, the GI50 is 32.5 µM (inactive) in [7]; > 100 µM (inactive) in test [8]; 10.1 µM (inactive) in test [9]; 9.12 µM (inactive) in test [10]; 18.2 µM (inactive) in [11]; 45.6 µM (inactive) in [12]. Also, the GI50 in [13] was 16.6 µM (inactive); in test [14] it was 12.2 µM (inactive); in [15], 54.8 µM (inactive); in test [16] it was 31.6 µM (inactive); in [17], 25.5 µM (inactive); in test [18], 30.1 µM (inactive). In addition, the GI50 in test [19] is 45.3 µM (inactive); in test [20], 39.4 µM (inactive).
`N#Cc1c(O)c(/N=N/c2ccc(Cl)cc2)c(=O)n2c1[nH]c1ccccc12`: the GI50 in test [1] was 21.5 µM (inactive); in test [2], 40.6 µM (inactive); in test [3] it was 45.2 µM (inactive); in test [4], 55.5 µM (inactive); in [5] it was 27.1 µM (inactive); in [6], 37.7 µM (inactive). The GI50 in test [7] was 17.5 µM (inactive); in [8], 34.6 µM (inactive); in test [9], 37.8 µM (inactive); in test [10] it was 53.8 µM (inactive); in test [11] it was 45 µM (inactive); in test [12], 45.6 µM (inactive). In addition, the GI50 in [13] is 63.2 µM (inactive); in [14], 53.8 µM (inactive); in [15], 35.8 µM (inactive); in test [16], > 100 µM (inactive); in test [17], 47.3 µM (inactive); in test [18] it was 35.8 µM (inactive). Besides, the GI50 was 45.8 µM (inactive) in [19] and 47 µM (inactive) in test [20].
Take `O=C(O)CC(Nc1ccccc1)C(=O)O` (stereo not given): the GI50 in test [1], in test [2], in [3], in test [4], in test [5] and in [6] was > 100 µM (inactive) each time. Also, the GI50 in test [7], in [8], in test [9], in test [10], in test [11] and in test [12] was > 100 µM (inactive) in each case. Further, the GI50 in test [13], in test [14], in test [15], in [16], in test [17] and in [18] was > 100 µM (inactive) each time. Also, the GI50 in test [19] and in [20] was > 100 µM (inactive) each time.
On to `C=CC[C@]1(C2=NC(C)(C)CO2)c2ccccc2-c2ccccc2[C@H]1C(C)=O`, for which the GI50 in [1] was 7.23 µM (inactive); in [2] it was 5.57 µM (inactive); in [3], 14.2 µM (inactive); in test [4], 3.93 µM (inactive); in test [5], 13 µM (inactive); in test [6], 10.9 µM (inactive). For the same compound, the GI50 is 0.643 µM (active) in [7]; 16 µM (inactive) in test [8]; 15.7 µM (inactive) in test [9]; 10.8 µM (inactive) in test [10]; 10 µM (inactive) in test [11]; 6.03 µM (inactive) in test [12]. Further, the GI50 in test [13] is 7.55 µM (inactive); in test [14], 3.68 µM (inactive); in test [15], 4.19 µM (inactive); in [16], 15.6 µM (inactive); in [17], 11.6 µM (inactive); in [18], 3.64 µM (inactive). Moreover, the GI50 in test [19] was 3.92 µM (inactive); in test [20], 5.73 µM (inactive).
`O=C1/C(=C/c2ccc3c(c2)CCC3)Cc2cc3c(cc21)CCC3`: the GI50 in test [1] was > 100 µM (inactive); in [2], > 100 µM (inactive); in [3], > 100 µM (inactive); in test [4], > 100 µM (inactive); in test [5] it was 3.53 µM (inactive); in [6] it was 26.2 µM (inactive). Besides, the GI50 in test [7], in test [8], in test [9], in test [10], in [11] and in test [12] was > 100 µM (inactive) each time. Besides, the GI50 in [13] is > 100 µM (inactive); in test [14], 49.3 µM (inactive); in test [15], > 100 µM (inactive); in test [16], > 100 µM (inactive); in [17], 61.9 µM (inactive); in test [18], > 100 µM (inactive). For the same compound, the GI50 in [19] and in test [20] was > 100 µM (inactive) throughout.
